A short description of series [1]: ROS-generation assay (H2O2 generated with DTT, HRP-phenol red, 610 nm). The conditions noted are these: 50 µM compound, incubated with DTT; control 90.74±5.54. From the text:
The […] metabolites and enzymes (such as NADPH oxidase, lipoxygenase, and cytochrome P450) act together to mediate the production of ROS and diminish the counteractive oxidative damage. ROS can cause damage to DNA, lipid, proteins, and nucleic acids and the destruction of cell components leading to cell death. Toward this end, we aimed to investigate whether the mode of action of this class of compounds involved the generation of ROS. ROS-producing compounds upon reaction with a reducing agent in the presence of oxygen afford superoxide O^•−2 radical and hydrogen peroxide (H2O2) which could be quantitively estimated. Thus, compounds 5a and 7a (at 50 µM concentration) were incubated with the reducing agent dithiothreitol (DTT) and the generated H2O2 was subsequently assessed by monitoring the oxidation of phenol red in the presence of horseradish peroxidase (HRP) at the absorbance of 610 nm. We first examined the validity of the assay by examining the activity of a known ROS-producing standard drug. In our study, Celecoxib was utilized as a reference pharmacological ROS-generating drug. […] Next, we evaluated the potency of compounds 5a and 7a to produce ROS at a 50 µM concentration.
According to Nasiri et al., the antioxidant activity of compounds (5a, 7a) and Celecoxib was measured by an evaluation of ROS-generation using ELISA analysis. Three different solutions were prepared for the in vitro assessment of ROS-generation: phenol red, sodium hydroxide solution, and DTT. All reagents were provided by Sigma-Aldrich. A stock solution of DTT (20 mM) was prepared by dissolving […] of DTT in 500 µL of Hank’s Balanced Salt Solution (HBSS), and the obtained solution was preserved at −20 °C. The stock solution was further diluted with HBSS to 0.8 mM for each measurement. The HRP-PR solution was prepared by dissolving 1.8 mg of horseradish peroxidase (HRP) and 3 mg of phenol red (PR) in 10 mL of HBSS. […] After incubation, 1N NaOH was applied, and the absorbance at 610 nm was measured using a plate reader spectrometer. […]

Series [2] is described as follows: MTT cytotoxicity assay against WI-38 cells. The class given is cell-based, human. The conditions noted are these: human, WI-38 lung fibroblast cells. The protocol:
(§1) Based on the promising dual inhibitory activity of this class of compounds, we next evaluated the cytotoxicity of compounds 5a and 7a against human lung fibroblast cell line WI-38 in order to gain insights into the toxicity of this class of compounds utilizing the MTT assay. In this regard, lung fibroblast cells were cultured and treated with compounds 5a and 7a for 48 h at different concentrations (1000, 250, 63, 16, and 4 µg/mL). After the cells were washed, they were treated with MTT solution and the absorption was assessed using an ELISA reader at 570 nm. As a pharmacological reference drug, Celecoxib, a well-known anti-inflammatory agent, was utilized.
(§2) The cytotoxicity of compounds 5a and 7a was assessed toward the human lung fibroblast WI-38 cell line (Sigma-Aldrich, St. Louis, MO, USA, product number 90020107) using MTT assay. The MTT test assay was performed in accordance with the previously stated procedure. MTT (3-(4,5-dimethylthiazol-2-yl)-2,5-diphenyl tetrazolium bromide; Sigma catalog no. M2128) was dissolved in PBS at 5 mg/mL and processed to eliminate the insoluble residues. Briefly, cells (10^5 cells/well) were treated for 48 h at 37 °C with compounds 5a and 7a at varied doses (1000, 250, 63, 16, and 4 µg/mL, DMSO stock solutions) in a 5% CO2 atmosphere. In our assessment, celecoxib, an inhibitor of cyclooxygenase 2, was employed as a standard reference drug. Following cell washing, MTT solution (180 µL/well) was applied to the cells and incubated at 37 °C for 4 h with shaking, and the absorbance was measured using an ELISA reader at 570 nm.
Background: Tetrazolium dyes change colour on reduction, which living cells bring about.

Series [3] has as its system human lung fibroblast WI-38 cell line. Put plainly: MTT cytotoxicity assay against WI-38 cells. Format: cell-based. Particulars: MTT, 48 h. The protocol: as §1, §2
For a further series, the target named is α-amylase. Particulars: cited from earlier work.
A further series deals with α-glucosidase. Particulars: cited from earlier work.
The subject of a further series is INS-1 cells. Details: method as in PMID 10918947. The conditions noted are these: 10 µg/mL, in the presence of 5.6 mmol/L glucose ref 36; cited from earlier work.

Values after ≈ are worked out from the molar mass of the structure shown. Values joined by “and” are separate entries in the source; they are usually repeats but may differ in a detail not shown here. Equal values may be shown once.

The term viability denotes the share of living cells, or the viability signal relative to a control. Low values mean more harm to the cells, high ones less harm to the cells. As usually defined, the IC50 is the midpoint of a concentration-inhibition curve. As to `Cc1ccc(-c2cc(C(F)(F)F)nn2-c2ccc(S(N)(=O)=O)cc2)cc1` [Celecoxib, reference compound], the “ROS produced (generated H2O2)” value in series [1] was 171.6 pg/mL and 171.6 ± 1.89 pg/mL. The same compound gave a viability at 48 h, 4 µg/mL in series [2] (4 µg/mL (log conc. 0.602)) of 67.3%. In addition, the viability at 48 h, 16 µg/mL in series [2] (16 µg/mL (log conc. 1.204)) worked out at 61.7%. Further, in series [2] (63 µg/mL (log conc. 1.799)), the viability at 48 h, 63 µg/mL was 54.2%. Besides, the viability at 48 h, 250 µg/mL in series [2] (250 µg/mL (log conc. 2.398)) was 43%. The compound further had a viability at 48 h, 1000 µg/mL in series [2] (1000 µg/mL (log conc. 3)) of 35.4%. Further, half-maximal inhibition in series [2] (MTT) (IC50 at 48 h) was put at 93 µg/mL (≈ 244 µM). Also, the “WI-38 cytotoxicity IC50” value in series [3] amounted to 93.054 µg/mL.
`O=C1CNC(=S)N1C(=O)c1cc([N+](=O)[O-])cc([N+](=O)[O-])c1` [Compound 3j]: the figures for the IC50 on α-amylase (read-out: IC50 toward α-amylase enzyme) and at α-glucosidase (read-out: IC50 toward α-glucosidase enzyme) were 8.2 µM and 51 µM, respectively.
Take `CN1C(=O)/C(=C/c2ccc(-c3cc(=O)c4ccccc4o3)cc2)N(C)C1=S` [Compound 9]: the “increase of insulin release as compared to control” value with INS-1 cells is on record as 40%.
Take `O=C1CNC(=S)N1` [unsubstituted-2-thiohydantoin, 2-thiohydantoin]: the “IC50 toward α-amylase activity” value at α-amylase is 410.35 µg/mL (≈ 3530 µM). The “IC50 toward α-glucosidase activity” value on α-glucosidase is 356.22 µg/mL (≈ 3070 µM).
